Data as given in PubChem BioAssay (NCI).
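Five compound concentrations were applied to cells in 96-well plates for 48 hours; endpoints were derived by simple linear interpolation of the resulting dose-response curve. TGI marks complete inhibition of growth.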

How the values were obtained:
Test in all cases: DTP human tumour cell line panel, 48 h
[1] = system: MCF7 breast
[2] = system: TK-10 renal
[3] = system: SK-MEL-5 melanoma
[4] = system: EKVX NSCLC
[5] = system: OVCAR-8 ovarian
[6] = system: T-47D breast
[7] = system: CAKI-1 renal
[8] = system: NCI-H226 lung
[9] = system: BT-549 breast
[10] = system: IGROV1 ovarian
[11] = system: K-562 leukemia
[12] = system: SW-620 colon
[13] = system: HCT-15 colon
[14] = system: HOP-92 NSCLC
[15] = system: LOX IMVI melanoma
[16] = system: CCRF-CEM leukemia
[17] = system: MDA-N
[18] = system: SNB-19 CNS
[19] = system: NCI/ADR-RES ovarian
[20] = system: SK-MEL-28 melanoma
[21] = system: A549 NSCLC
[22] = system: NCI-H460 lung
[23] = system: A498 renal
[24] = system: SF-268 CNS
[25] = system: PC-3 prostate
[26] = system: MDA-MB-231 breast
[27] = system: MALME-3M melanoma
[28] = system: OVCAR-5 ovarian
[29] = system: 786-0 renal
[30] = system: HT29 colon
[31] = system: DU-145 prostate
[32] = system: MOLT-4 leukemia
[33] = system: UACC-257 melanoma
[34] = system: ACHN renal
[35] = system: U251 CNS
[36] = system: OVCAR-3 ovarian
[37] = system: HS 578T breast
[38] = system: OVCAR-4 ovarian
[39] = system: UACC-62 melanoma
[40] = system: KM12 colon
[41] = system: M14 melanoma
[42] = system: SF-539 CNS
[43] = system: HOP-62 NSCLC
[44] = system: SNB-75 CNS
[45] = system: NCI-H23 lung
[46] = system: UO-31 renal
[47] = system: SK-OV-3 ovarian
[48] = system: HCC-2998 colon
[49] = system: SF-295 CNS
[50] = system: HCT-116 colon
[51] = system: MDA-MB-435
[52] = system: COLO 205 colon
[53] = system: SN12C renal
[54] = system: SK-MEL-2 melanoma
[55] = system: RXF 393 renal
[56] = system: NCI-H522 lung
[57] = system: RPMI-8226 leukemia
[58] = system: SR leukemia
[59] = system: HL-60(TB) leukemia

`O=C(O)c1cc(Nc2c(O)c3c(c(O)c2Cl)C(=O)C=CC3=O)ccc1O` was tested, and the TGI [1] was > 10 µM, the TGI [2] was > 10 µM and the TGI [3] was > 10 µM. For the same compound, the TGI [4] was > 10 µM, the TGI [5] was > 10 µM and the TGI [6] was > 10 µM. The TGI [7] was > 10 µM, the TGI [8] was > 10 µM and the TGI [9] was > 10 µM. For the same compound, the TGI [10] was > 10 µM, the TGI [11] was > 10 µM and the TGI [12] was > 10 µM. The TGI [13] was > 10 µM, the TGI [14] was > 10 µM and the TGI [15] was > 10 µM. For the same compound, the TGI [16] was > 10 µM, the TGI [17] was > 10 µM and the TGI [18] was > 10 µM. For the same compound, the TGI [19] was > 10 µM, the TGI [20] was > 10 µM and the TGI [21] was > 10 µM. The TGI [22] was > 10 µM, the TGI [23] was > 10 µM and the TGI [24] was > 10 µM. The TGI [25] was > 10 µM, the TGI [26] was > 10 µM and the TGI [27] was > 10 µM. For the same compound, the TGI [28] was > 10 µM, the TGI [29] was > 10 µM and the TGI [30] was > 10 µM. The TGI [31] was > 10 µM, the TGI [32] was > 10 µM and the TGI [33] was > 10 µM. For the same compound, the TGI [34] was > 10 µM, the TGI [35] was > 10 µM and the TGI [36] was > 10 µM. For the same compound, the TGI [37] was > 10 µM, the TGI [38] was > 10 µM and the TGI [39] was > 10 µM. For the same compound, the TGI [40] was > 10 µM, the TGI [41] was > 10 µM and the TGI [42] was > 10 µM. The TGI [43] was > 10 µM, the TGI [44] was > 10 µM and the TGI [45] was > 10 µM. For the same compound, the TGI [46] was > 10 µM, the TGI [47] was > 10 µM and the TGI [48] was > 10 µM. The TGI [49] was > 10 µM, the TGI [50] was > 10 µM and the TGI [51] was > 10 µM. For the same compound, the TGI [52] was > 10 µM and the TGI [53] was > 10 µM.

`OC1(C(O)(c2ccc(-c3ccccc3)cc2)c2ccc(-c3ccccc3)cc2)CCCCC1` was tested, and the TGI [1] was > 100 µM, the TGI [2] was > 100 µM and the TGI [3] was > 100 µM. For the same compound, the TGI [4] was > 100 µM, the TGI [5] was > 100 µM and the TGI [6] was > 100 µM. The TGI [7] was > 100 µM, the TGI [8] was > 100 µM and the TGI [54] was > 100 µM. The TGI [9] was > 100 µM, the TGI [10] was > 100 µM and the TGI [11] was > 100 µM. The TGI [12] was > 100 µM, the TGI [55] was > 100 µM and the TGI [13] was > 100 µM. For the same compound, the TGI [14] was > 100 µM, the TGI [15] was > 100 µM and the TGI [17] was > 100 µM. For the same compound, the TGI [18] was > 100 µM, the TGI [56] was > 100 µM and the TGI [19] was > 100 µM. The TGI [20] was > 100 µM, the TGI [21] was > 100 µM and the TGI [22] was > 100 µM. For the same compound, the TGI [23] was > 100 µM, the TGI [24] was > 100 µM and the TGI [25] was > 100 µM. The TGI [26] was > 100 µM, the TGI [28] was > 100 µM and the TGI [29] was > 100 µM. For the same compound, the TGI [30] was > 100 µM, the TGI [57] was > 100 µM and the TGI [31] was > 100 µM. The TGI [32] was > 100 µM, the TGI [33] was > 100 µM and the TGI [34] was > 100 µM. For the same compound, the TGI [35] was > 100 µM, the TGI [36] was > 100 µM and the TGI [37] was > 100 µM. The TGI [38] was > 100 µM, the TGI [39] was > 100 µM and the TGI [40] was > 100 µM. For the same compound, the TGI [41] was > 100 µM, the TGI [42] was > 100 µM and the TGI [43] was > 100 µM. For the same compound, the TGI [44] was > 100 µM, the TGI [45] was > 100 µM and the TGI [46] was > 100 µM. For the same compound, the TGI [47] was > 100 µM, the TGI [48] was > 100 µM and the TGI [49] was > 100 µM. For the same compound, the TGI [58] was > 100 µM, the TGI [50] was > 100 µM and the TGI [51] was > 100 µM. The TGI [59] was > 100 µM, the TGI [52] was > 100 µM and the TGI [53] was > 100 µM.
